# In patent publication US20080318861A1, “Mucosal Delivery of Stabilized Formulations of Exendin” (NASTECH PHARMACEUTICAL COMPANY INC., priority 2005, published 2008):
# Columns and labels:
# [1] = Physical stability by clarity (absorbance at 630 nm) on storage at 5° C.; details: stored at 5° C. (refrigerated) for at least two weeks
# Procedure: In vitro testing of exenatide formulations included a preservatives screen. Physical stability after storage at 5° C. was measured for all formulations tested in vitro. Exenatide formulations were placed in 1 cc glass vials and closed with trifoil lined caps and stored at 5° C. for at least two weeks. Physical stability was monitored by measuring clarity. Clarity of a formulation was determined by measuring absorbance at 630 nm, using the μQuant optical density plate reader for each formulation at days 0, 7, and 14. A 200 μL volume from each vial was placed in a 96-well plate and read against a background of water.
# Varying concentrations of sodium benzoate (NaBz) and benzalkonium chloride (BAK), were screened for their effect on physical stability of the three formulations used in in vivo studies. Sodium benzoate was added at 1.0, 2.5, and 5.0 mg/mL, while BAK was tested at 0.2, 1.0, 2.0, and 4.0 mg/mL. To prepare the samples, varying amounts of stock solutions of the two preservatives were added to the three prepared formulations dosed in the PK study. […] The resulting formulations were stored at 5° C. for 5.5 weeks. Physical stability was monitored by measuring the absorbance of the solution at 630 nm.
# Sodium benzoate was added at concentrations of 1.0 to 5.0 mg/mL, while BAK was tested at 0.05, 0.075, and 0.1 mg/mL. To prepare the samples, varying amounts of stock solutions of the two preservatives were added to the formulations prepared in the PK study and the pH was adjusted to 4.5 with HCl as necessary. The resulting formulations were stored at 5° C. for 4 weeks. Physical stability was monitored by measuring the absorbance of the solution at […].
# The second formulation lacked any buffer to test the effect of the buffer itself on physical stability.
# [2] = tested on: normal, human-derived tracheal/bronchial epithelial cells (EpiAirway Tissue Model); test: MTT cell viability assay; assay type: cell-based; details: for toxicity / cell viability in excipient screening (in words): cell viability as measured by LDH and MTT, exenatide formulation containing the named excipient
# Source text: The extraction plate was covered and scaled to reduce evaporation of extractant.
# [3] = tested on: epithelial tissue barrier (EpiAirway Tissue Model); test: In vitro permeation of exenatide across the cellular barrier (EIA analysis); details: for exenatide permeation (in words): compared with AKL-225-126-2 or control without enhancers
# Source text: Initial studies focused on optimizing the concentrations of Me-β-CD, DDPC, EDTA, and gelatin to enhance exenatide permeation across an epithelial tissue layer.
# A second round of studies, series B, systematically screened several excipients for their potential to enhance exenatide permeation to a greater degree than the Me-β-CD, DDPC, EDTA, and gelatin combinations. […] Initially, each excipient (except for those classified as “generally regarded as safe” (GRAS) by the FDA, recombinant gelatins, and PN159), was tested at two concentrations or in combination with Me-β-CD, DDPC, or EDTA. As with series A formulations, each formulation was evaluated for exenatide permeation, ability to reduce TER while not adversely affecting cell viability, and formulation physical stability.
# [4] = tested on: normal, human-derived tracheal/bronchial epithelial cells (EpiAirway Tissue Model); test: Transepithelial electrical resistance (TER) in the in vitro nasal epithelial model; assay type: cell-based; details: 60 min exposure
# Source text: A cell line from MatTek Corp. (Ashland, Mass.) was used as the source of normal, human-derived tracheal/bronchial epithelial cells (EpiAirway™ Tissue Model). […] The cells were provided as inserts grown to confluence on Millipore Milicell-CM filters comprised of transparent hydrophilic Teflon (PTFE). […] TER measurements were accomplished using the Endohm-12 Tissue Resistance Measurement Chamber connected to the EVOM Epithelial Voltohmmeter (World Precision Instruments, Sarasota, Fla.) with the electrode leads. The electrodes and a tissue culture blank insert were equilibrated for at least twenty (20) minutes in phosphate buffered solution with the power off prior to checking calibration. The background resistance was measured with 1.5 mL media in the Endohm tissue chamber and 300 μL media in a blank Millicell-CM insert. […] The background resistance of the blank insert was 5-12 ohms.
# TER was measured before and after the sixty (60) minute incubation. […] After the 60 minute incubation with test samples, 200 μL of fresh media was gently added to the apical surface of each test sample insert and final TER was measured for each insert. […] Resistance is expressed as follows: (resistance measured−blank)×0.6 cm^2.
# [5] = tested on: normal, human-derived tracheal/bronchial epithelial cells (EpiAirway Tissue Model); test: Lactate dehydrogenase (LDH) cytotoxicity assay; assay type: cell-based
# Procedure: The amount of cell death was assayed by measuring the loss of lactate dehydrogenase (LDH) from the cells using a CytoTox 96 Cytoxicity Assay Kit (Promega Corp., Madison, Wis.). Fresh, cell-free culture medium was used as a blank. 50 μl harvested media (stored at 4° C.) was loaded in a 96-well plate. Substrate Solution (50 μl) was added to each well and the plates were incubated for thirty (30) minutes at ambient temperature in the dark. Following incubation, 50 μl of Stop Solution was added to each well and the reaction was monitored at A490 using an optical density plate reader. Media alone applied to the apical side served as a negative control while triton X served as the positive control for the LDH assay.
Compound,physical stability (clarity) [1],toxicity / cell viability in excipient screening (in words) [2],exenatide permeation (in words) [3],further results
"CCCCCCCCCCCCCCCC(=O)OC(CC(=O)[O-])C[N+](C)(C)C (racemic) [Palmitoyl-DL-carnitine, palmitoyl-DL-carnitine]",physically instable without Me-β-CD,toxic at high concentrations,,
O=C(O)CN(CCN(CC(=O)O)CC(=O)O)CC(=O)O [EDTA],,cell viability began to decrease,,
"C[C@H](CCC(=O)NCC(=O)[O-])[C@H]1CC[C@H]2[C@@H]3[C@H](O)C[C@@H]4C[C@H](O)CC[C@]4(C)[C@H]3C[C@H](O)[C@]12C.[Na+] [Sodium glycocholate, sodium glycocholate]",physically instable at high concentrations,,,
CCCCCCCCC(=O)OC[C@H](COP(=O)([O-])OCC[N+](C)(C)C)OC(=O)CCCCCCCC [dinonanoyl glycero phosphatidylcholine],becoming turbid in less than two weeks at refrigerated conditions,,,
CCO [ethanol],,,did not enhance exenatide permeation,
"CCCCCCCCO[C@@H]1O[C@H](CO)[C@H](O)[C@H](O)[C@H]1O [galactopyranoside, n-Octyl-β-D-galactopyranoside]",,toxic at 10 mg/mL,,
CCCCCCCC/C=C\CCCCCCCC(=O)O [oleic acid],,lowered cell viability,,
CC(O)CO (stereo not shown) [propylene glycol],,,failed to enhance permeation at all,
CCCCCCCCCC(=O)[O-].[Na+] [sodium caprate],physical instability in the absence of Me-β-CD,low cell viability at 50 mM alone,,
CCCCCCCC(=O)[O-].[Na+] [sodium caprylate],physical instability in the absence of Me-β-CD,toxic at 20 mM with Me-β-CD and EDTA,failed to enhance exenatide permeation to any extent alone or with permeation enhancers,
OC[C@H]1O[C@@H]2O[C@H]3[C@H](O)[C@@H](O)[C@@H](O[C@H]4[C@H](O)[C@@H](O)[C@@H](O[C@H]5[C@H](O)[C@@H](O)[C@@H](O[C@H]6[C@H](O)[C@@H](O)[C@@H](O[C@H]7[C@H](O)[C@@H](O)[C@@H](O[C@H]8[C@H](O)[C@@H](O)[C@@H](O[C@H]1[C@H](O)[C@H]2O)O[C@@H]8CO)O[C@@H]7CO)O[C@@H]6CO)O[C@@H]5CO)O[C@@H]4CO)O[C@@H]3CO [β-cyclodextrin],became turbid at refrigerated conditions,,,
Tween-80,,,failed to enhance exenatide permeation to the same extent as formulation AKL-225-126-2,
dimethyl-β-cyclodextrin [DMe-β-CD],,more toxic to the cells than Me-β-CD,,fold increase in exenatide permeation over AKL-225-126-2 ([3]; full dose volume (100 µL)): 1.5 fold
hydroxypropyl-β-cyclodextrin [H-β-CD],,,did not increase permeation significantly,
triton X,,,,TER reduction (in words) [4]: lowest possible TER; cytotoxicity as measured by % MTT (in words) [2]: significant toxicity; cytotoxicity as measured by % LDH (in words) [5]: significant toxicity
